Source: patent publication US12281084B2, “Acetyl-CoA synthetase 2 (ACSS2) inhibitors and methods using same” (The Wistar Institute, priority 2019, dated 2025)

What was measured:
Format in all cases: cell-based, human
BT474 cells = assay: RNA sequencing of BT474 cells under hypoxia and low lipid stress; conditions: H1, RNA sequencing
Description: ACSS2 affects histone and transcription factor acetylation in the nucleus of cells which then affects gene transcription. It was thus tested if inhibition of ACSS2 affects hypoxia and lipid depletion induced transcriptional stress responses. BT474 cells were incubated in normoxic, nutrient replete conditions (N10) and in hypoxic, low lipid conditions (H1). […] Additional analysis also found significant upregulation of 30 genes related to fatty acid synthesis (FIG. 3D).
It was then compared how many of the 1075 hypoxia and low lipid stress responsive genes were affected by siRNA mediated knockdown of ACSS2 (siACSS2) and VY-3-135 treatment.

MDA-MB-468 cells = assay: 13C2-acetate tracing in MDA-MB-468 cells; conditions: MDA-MB-468 cells (FIG. 11D)
Description: (§1) All metabolomic experiments were performed in serum-like modified Eagle's medium (SMEM). SMEM contains 54 different nutrients that are found in the bloodstream at concentrations that are physiologically relevant to humans. SMEM was supplemented with 10% or 1% fetal bovine serum (FBS; Life Technologies). Cells were grown in normoxia (atmospheric oxygen) or hypoxia (1% oxygen) while being incubated in uniformly labeled ^13C2-acetate (0.100 mM; Cambridge Isotope Laboratories). Lengths of incubation are described in the figure legends. For extraction of metabolites from cultured cells, SMEM medium was aspirated and cells were washed once in ice-cold PBS. Metabolites were extracted by adding a solution of LC-MS grade methanol/acetonitrile/water (5:3:2) to the well. […]
(§2) LC-MS analysis was performed on a Q Exactive Hybrid Quadrupole-Orbitrap HF-X MS (ThermoFisher Scientific) equipped with a HESI II probe and coupled to a Vanquish Horizon UHPLC system (ThermoFisher Scientific). […] Samples were analyzed in full MS scan with polarity switching at scan range 65 to 975 m/z; 120,000 resolution; automated gain control (AGC) target of 1E6; and maximum injection time (max IT) of 100 milliseconds. Identification and quantitation of metabolites was performed using an annotated compound library and TraceFinder 4.1 software. […]

SKBr3 cells = assay: 13C2-acetate tracing in SKBr3 cells; conditions: 100 μM 13C2-acetate, 24 hr, N10 or H1 (FIG. 2B)
Description: as §1, §2

CCn1c(C(O)(c2ccccc2)c2ccccc2)nc2ccc(C(=O)NC[C@@H](C)O)cc21 [VY-3-135, (R)-1-ethyl-2-(hydroxydiphenylmethyl)-N-(2-hydroxypropyl)-1H-benzo[d]imidazole-6-carboxamide]
transcriptional regulation of genes in response to hypoxia and low lipid stress (BT474 cells): has a minimal effect on the transcriptional regulation of genes in response to hypoxia and low lipid stress | incorporation of 13C2-acetate into UDP-GlcNAc (MDA-MB-468 cells): able to block incorporation of ^13C2-acetate into UDP-GlcNAc to nearly the levels of unlabeled cells | fatty acid synthesis from acetate (13C2-acetate labeling of palmitate) (SKBr3 cells): completely blocked fatty acid synthesis from acetate
